Laboratory results from patent US20070049564A1 (Wyeth, priority 2005, published 2007).
Converted amounts (≈) assume the structure as drawn. Where two headings read alike, the source gives them in different places.

How the values were obtained:
[1] = system: S. pneumoniae* GC 4465; assay: MIC, broth microdilution; conditions: Streptococcus pneumoniae, S. pneumoniae* GC 4465
[2] = system: E. faecalis GC 2267; assay: MIC, broth microdilution; conditions: Enterococcus faecalis, GC2267, E. faecalis GC 2267
[3] = system: S. aureus GC 6466; assay: MIC, broth microdilution; conditions: Staphylococcus aureus, GC6466, S. aureus GC 6466
[4] = system: E. coli GC 2231; assay: MIC, broth microdilution; conditions: Escherichia coli, GC2231, E. coli GC 2231
Protocol: Antimicrobial susceptibility testing. The in vitro activities of the antibiotics are determined by the broth microdilution method as recommended by the National Committee for Clinical Laboratory Standards (NCCLS) (1). Mueller-Hinton II broth (MHBII)(BBL Cockeysville, Md.) is the medium employed in the testing procedures. Microtiter plates containing serial dilutions of each antimicrobial agent are inoculated with each organism to yield the appropriate density (10^5 CFU/ml) in a 100 μl final volume. The plates are incubated for 18-22 hours at 35° C. in ambient air.
Representative compounds were first incubated in mouse serum for an hour prior to the in vitro testing against a panel of selected gram-positive and gram-negative bacteria strains. All compounds were also pre-incubated in water for an hour prior to testing as control.

[5] = system: S. pneumoniae+ GC 4465; assay: MIC, broth microdilution; conditions: Streptococcus pneumoniae, S. pneumoniae+ GC 4465
[6] = system: S. aureus GC 6467; assay: MIC, broth microdilution; conditions: Staphylococcus aureus, GC6467, S. aureus GC 6467
[7] = system: S. aureus GC 2216; assay: MIC, broth microdilution; conditions: Staphylococcus aureus, GC2216, S. aureus GC 2216
[8] = system: E. faecalis GC 2242; assay: MIC, broth microdilution; conditions: Enterococcus faecalis, GC2242, E. faecalis GC 2242
[9] = system: P. aeruginosa GC 2214; assay: MIC, broth microdilution; conditions: Pseudomonas aeruginosa, GC2214, P. aeruginosa GC 2214
[10] = system: S. aureus GC 1131; assay: MIC, broth microdilution; conditions: Staphylococcus aureus, GC1131, S. aureus GC 1131
[11] = system: E. coli GC 2272; assay: MIC, broth microdilution; conditions: Escherichia coli, GC2272, E. coli GC 2272
[12] = system: E. coli GC 2234; assay: MIC, broth microdilution; conditions: Escherichia coli, GC2234, E. coli GC 2234
[13] = system: S. aureus GC 4536; assay: MIC, broth microdilution; conditions: Staphylococcus aureus, GC4536, S. aureus GC 4536
[14] = system: Staph. aureus Smith; assay: In vivo activity (oral, iv; ED50) against Staph. aureus Smith in mice
Protocol: Representative examples of compounds of Formula I were tested for the oral efficacy using S. aureus Smith in mice.

[15] = system: E. coli GC 4560; assay: MIC, broth microdilution; conditions: Escherichia coli, GC4560, E. coli GC 4560
[16] = system: E. coli GC 6465; assay: MIC, broth microdilution; conditions: Escherichia coli, GC6465, E. coli GC 6465
[17] = system: E. coli GC 2232; assay: MIC, broth microdilution; conditions: Escherichia coli, GC2232, E. coli GC 2232
[18] = system: E. coli GC 2203; assay: MIC, broth microdilution; conditions: Escherichia coli, GC2203, E. coli GC 2203
[19] = system: E. coli GC 4559; assay: MIC, broth microdilution; conditions: Escherichia coli, GC4559, E. coli GC 4559
[20] = system: S. epidermidis GC 4935; assay: MIC, broth microdilution; conditions: Staphylococcus epidermidis, GC4935, S. epidermidis GC 4935

SMILES: CCCN(CC(=O)Nc1cc(N(C)C)c2c(c1O)C(=O)C1=C(O)[C@]3(O)C(=O)C(C(N)=O)=C(O)[C@@H](N(C)C)[C@@H]3C[C@@H]1C2)C(=O)OCOC(=O)Cc1ccccc1 [Example 11, ({[(2-{[(5aR,6aS,7S,10aS)-9-(aminocarbonyl)-4,7-bis(dimethylamino)-1,8,10a,11′-tetrahydroxy-10,12-dioxo-5,5a,6,6a,7,10,10a,12-octahydrotetracen-2-yl]amino}-2-oxoethyl)(propyl)amino]carbonyl}oxy)methyl phenylacetate]
- MIC ([1]; Mouse Serum pre-incubation): < 0.06 µg/mL
- MIC ([1]; Water pre-incubation): < 0.06 µg/mL
- MIC ([2]; Mouse Serum pre-incubation): 2 µg/mL (≈ 2.62 µM)
- MIC ([2]; Water pre-incubation): 2 µg/mL (≈ 2.62 µM)
- MIC ([3]; Mouse Serum pre-incubation): 0.25 µg/mL (≈ 0.327 µM)
- MIC ([3]; Water pre-incubation): 0.25 µg/mL (≈ 0.327 µM)
- MIC ([4]; Mouse Serum pre-incubation): 2 µg/mL (≈ 2.62 µM)
- MIC ([4]; Water pre-incubation): 64 µg/mL (≈ 83.8 µM)
- MIC ([5]; Mouse Serum pre-incubation): 2 µg/mL (≈ 2.62 µM)
- MIC ([5]; Water pre-incubation): 2 µg/mL (≈ 2.62 µM)
- MIC ([6]; Mouse Serum pre-incubation): 4 µg/mL (≈ 5.24 µM)
- MIC ([6]; Water pre-incubation): 4 µg/mL (≈ 5.24 µM)
- MIC ([7]; Mouse Serum pre-incubation): 0.5 µg/mL (≈ 0.655 µM)
- MIC ([7]; Water pre-incubation): 0.5 µg/mL (≈ 0.655 µM)
- MIC ([8]; Mouse Serum pre-incubation): 0.25 µg/mL (≈ 0.327 µM)
- MIC ([8]; Water pre-incubation): 0.5 µg/mL (≈ 0.655 µM)
- MIC ([9]; Mouse Serum pre-incubation): 16 µg/mL (≈ 20.9 µM)
- MIC ([9]; Water pre-incubation): > 64 µg/mL
- MIC ([10]; Mouse Serum pre-incubation): 0.25 µg/mL (≈ 0.327 µM)
- MIC ([10]; Water pre-incubation): 0.25 µg/mL (≈ 0.327 µM)
- MIC ([11]; Mouse Serum pre-incubation): 0.25 µg/mL (≈ 0.327 µM)
- MIC ([11]; Water pre-incubation): 4 µg/mL (≈ 5.24 µM)
- MIC ([12]; Mouse Serum pre-incubation): 0.5 µg/mL (≈ 0.655 µM)
- MIC ([12]; Water pre-incubation): 16 µg/mL (≈ 20.9 µM)
- MIC ([13]; Mouse Serum pre-incubation): 0.5 µg/mL (≈ 0.655 µM)
- MIC ([13]; Water pre-incubation): 0.5 µg/mL (≈ 0.655 µM)
- ED50 ([14]; Staphylococcus aureus, in Mus musculus, po, read-out: ED50 Staph Smith SOD): 30.3 mg/kg
- ED50 ([14]; iv, read-out: ED50 Staph Smith SIV): 0.59 mg/kg
- MIC ([15]; Mouse Serum pre-incubation): 0.12 µg/mL (≈ 0.157 µM)
- MIC ([15]; Water pre-incubation): 0.12 µg/mL (≈ 0.157 µM)
- MIC ([16]; Mouse Serum pre-incubation): 8 µg/mL (≈ 10.5 µM)
- MIC ([16]; Water pre-incubation): > 64 µg/mL
- MIC ([17]; Mouse Serum pre-incubation): 1 µg/mL (≈ 1.31 µM)
- MIC ([17]; Water pre-incubation): 16 µg/mL (≈ 20.9 µM)
- MIC ([18]; Mouse Serum pre-incubation): 0.25 µg/mL (≈ 0.327 µM)
- MIC ([18]; Water pre-incubation): 16 µg/mL (≈ 20.9 µM)
- MIC ([19]; Mouse Serum pre-incubation): 0.5 µg/mL (≈ 0.655 µM)
- MIC ([19]; Water pre-incubation): 32 µg/mL (≈ 41.9 µM)
- MIC ([20]; Mouse Serum pre-incubation): 1 µg/mL (≈ 1.31 µM)
- MIC ([20]; Water pre-incubation): 2 µg/mL (≈ 2.62 µM)
